Test results: patent US20250032457A1, “METHODS OF TREATING ANDROGENIC ALOPECIA AND/OR SKIN CONDITIONS” (priority 2020, published 2025)

System: scalp of a human subject (hairline recession, hair loss and thinning)
Experiment: Topical administration to the scalp of a human subject with hairline recession, hair loss and thinning
Settings: 2% miconazole nitrate formulation, twice per day, observed after 3 months, one human subject, FIG. 2 vs FIG. 1
Text: Hairline recession, hair thinning, and hair loss were observed prior to administration.

What does the source list for Clc1ccc(COC(Cn2ccnc2)c2ccc(Cl)cc2Cl)c(Cl)c1 (centres unmarked) [miconazole]?
hairline recession (topical on scalp): reversal of hairline recession; hair growth on the scalp: promotion of hair growth elsewhere on the scalp
